Assay results reported in patent publication US20250276999A1, “PEPTIDES FOR PROMOTING HAIR FOLLICLE NEOGENESIS, AND PREVENTION/MITIGATION OF UNTOWARD EFFECTS OF RADIATION TREATMENT” (Trustees of Tufts College, priority 2022, published 2025).

System: hair follicle neogenesis
Experiment: Patch assay, hair follicle neogenesis in vivo
Set-up: species or system nu/nu mouse
Details: 100 μM peptide vs scrambled peptide, N=3 patches (FIG. 2)
Protocol: Next, we used a patch assay to test is TSN peptides can induce hair follicle neogenesis in vivo. Epidermal aggregates were resuspended in DMEM/F12 at 750,000 aggregates/750 μL (1000 aggregates/μL) and spheroids were resuspended in DMEM/F12 at 1400 spheroids/140 μL (10 spheroids/μL). 10 million dermal cells were resuspended in 400 μL DMEM/F12 (25,000 cell/μL or 1.25E6 per 50 μL). […] Using a dissecting microscope the number of hair follicles were counted for each implantation from the mucosal side of the skin (FIG. 2).
Preparation of spheroids: Dermal Papilla (DP) cells were trypsinized, neutralized and counted. […]
Preparation of epidermal Cell aggregates: From 12 neonatal foreskins, the epidermis was separated from the dermis using dispase incubation overnight. […] The final pellet was resuspended in 6 mL DMEM/F12 (for 12 skins) and the aggregates were counted using hemocytometer. […]

HSPDIQLQKGLTFEPIQIK [TSN6, 19 amino acid peptide derived from multimerin-1, Coiled coil domain]
number of hair follicles (hair follicle formation): two-fold increase
